Measured values as given in patent publication US20230044690A1, “PROGESTERONE FORMULATION TO TRIGGER OVULATION AND PROVIDE LUTEAL PHASE SUPPORT” (AUGUSTA UNIVERSITY RESEARCH INSTITUTE, INC., priority 2019, published 2023).
Read-outs that look alike come from different tables or passages of the source.

Tests used:
[1] = circulating progestins, compared by activity with 0.5 ng preovulatory progesterone; cited from earlier work
gonadotropins surge [2] = conditions: cited from earlier work
ovulation [3] = type: in vivo, human
Protocol: For the natural cycle, they were monitored with ultrasound at the base line on day 2, and then day 12 and 13. At day 13 of the cycle, their leading follicle had reached a size of 17 mm (FIG. 4B), P4 was 1.5 ng/ml and LH was 5 IU/L. They were given an intramuscular injection of 5 mg of progesterone. The protocol is outlined in FIG. 4A
Failure of the follicle to rupture was attributed to its size (17 mm) at the time of the trigger.

gonadotropins surge [4] = assay: Reported progesterone dose and pharmacodynamics for induction of a gonadotropins surge (Leyendecker et al, 1972); type: in vivo, human; conditions: about 5 mg of progesterone in sesame oil, intramuscular injection; estimate from Leyendecker 1972
Protocol: The lowest dose of progesterone reported for induction of a gonadotropins surge is […] injected intramuscularly (Leyendecker, et al, 1972).
Consequently, the target cumulative progesterone level in circulation was 1 ng/ml. Based on pharmacodynamics of progesterone (Leyendecker, et al, 1972), it was estimated that in order to achieve circulating progesterone level at its peak (120 minutes post injection) 1 ng/ml, an additional […] was needed to add to the patient's own 0.63 ng/ml. This would be achieved with about 5 mg of progesterone in sesame oil for intramuscular injection. […] Furthermore, progesterone continued to rise to the expected level several days later. The patient's P4 level on day 5 post trigger was excellent and additional supplementation with progesterone thereafter was given only for an abundance of caution.

ovulation [5] = type: in vivo, human; conditions: case 3
Protocol: A person, G2 P1, SAB1, height 152 cm, weight 164 lb was referred for infertility treatment following 6-month inability to conceive naturally. Patient's medical history was significant for PCOS and subclinical hypothyroidism, for which they were taking levothyroxine […]. Patient had menarche at 12, average period duration of 45 days, average menses duration of 6 days. Patient's fallopian tubes were both patent per HSG, with a normal uterine cavity (FIG. 6E). Their AMH was 9.3 ng/ml.
The medication regiment, at the beginning of the third attempt was the same as in the previous attempt when the patient became pregnant with 5 mg of Letrozole in addition to 100 mg CC for 5 days starting on the 3rd day of their period. […] Before the trigger […] P4 and LH were 0.62 ng/ml and 4.26 IU/L respectively (Table 3) and ultrasound identified three follicles 22, 22 and 19 mm (FIG. 6C-6D).
Seven days after the trigger shot, P4 level was 38.39 ng/ml at which time the patient was started on 200 mg progesterone vaginal suppository daily.

In the case of `C#CC1(O)CC[C@H]2[C@@H]3CCC4=CC(=O)CC[C@@H]4[C@H]3CC[C@@]21CC` (mixture of isomers) [D/L norgestrel], the Consensus value [1] is given as 0.075 mg.

In the case of `CC(=O)[C@H]1CC[C@H]2[C@@H]3C=CC4=CC(=O)CC[C@@]4(C)[C@@H]3CC[C@]12C` [Dydrogesterone], the Consensus value [1] is listed as 10 mg.

In the case of `CC(=O)O[C@]1(C(C)=O)CC[C@H]2[C@@H]3C[C@H](C)C4=CC(=O)CC[C@]4(C)[C@H]3CC[C@@]21C` [Medroxyprogesterone acetate], the Consensus value [1] is given as 5 mg.

In the case of `C#C[C@]1(O)CC[C@H]2[C@@H]3CCC4=CC(=O)CC[C@@H]4[C@H]3CC[C@@]21C` [Norethindrone], the Consensus value [1] is listed as 0.35 mg.

For `CC(=O)[C@H]1CC[C@H]2[C@@H]3CCC4=CC(=O)CC[C@]4(C)[C@H]3CC[C@]12C` [progesterone], the “Lowest dose reported for induction of a gonadotropins surge” value (gonadotropins surge [2]; injected intramuscularly) is given as 10 mg, the “Time of peak circulating progesterone level post injection” value (gonadotropins surge [2]; intramuscular injection) is given as 120 min and the “Circulating hormone level LH” value (ovulation [3]; 0 hrs after trigger injection, 5 mg progesterone i.m., case 1) is given as 10.9. For the same compound, the Follicle rupture (ovulation [3]; 17 mm leading follicle at trigger, 5 mg progesterone i.m., case 1) was “failed to rupture”, the “Circulating hormone level LH” value (ovulation [3]; 10 hrs after trigger injection, 5 mg progesterone i.m., case 1) was 28.4 and the “Circulating hormone level LH” value (ovulation [3]; 49 hrs after trigger injection, 5 mg progesterone i.m., case 1) was 11.36. The “Time until LH was at the ovulation level” value (ovulation [3]; after 5 mg progesterone i.m., case 1) was ≤ 12 h, the LH (ovulation [3]; day 13 of the cycle, before the progesterone injection, case 1) was 5 IU/L and the P4 (ovulation [3]; female, human, in vivo) was 1.5 ng/mL. The “Estimated additional circulating progesterone level at its peak” value (gonadotropins surge [4]) was 0.35 ng/mL, the LH (ovulation [5]; 17 hours 30 minutes after trigger shot, 5 mg progesterone in oil) was 37.01 IU/L and the LH (ovulation [5]; First follicular ultrasound, before trigger shot) was 9.47 IU/L. For the same compound, the LH (ovulation [5]; Stimulation day 10, before trigger shot) was 5.09 IU/L, the “Ultrasound observation: uterine lining” value (ovulation [5]; day 3 after trigger shot) was “lining - 15.2 mm” and the P4 level (ovulation [5]; day 5 post trigger) was “excellent”. The LH (ovulation [5]; day of progesterone trigger shot (stimulation day 12), before the trigger) was 4.26 IU/L, the “Ultrasound observation: uterine lining” value (ovulation [5]; day of progesterone trigger shot, before the trigger) was 10C-10D) Uterine lining 8.8 mm and the Pregnancy outcome (ovulation [5]; period 2 weeks later, 200 mg progesterone vaginal suppository daily from day 7) was “no pregnancy occurred”.
